From patent publication US20160000823A1, “METHODS AND COMPOSITIONS FOR IMPROVING HEMOSTASIS” (Mast Therapeutics, Inc., priority 2014, published 2016)
Entries after “also recorded” stand apart in the source; their conditions may differ.

Experiments:
t-PA induced bleeding = assay: Rat tail bleeding model with tissue plasminogen activator; assay type: in vivo
Description: Tissue plasminogen activator (t-PA) is used clinically to lyse occlusive thrombi. Bleeding complications that result from the unwanted lysis of hemostatic clots limits its use. TA is a synthetic derivative of the amino acid lysine that acts as a fibrinolytic inhibitor and is used clinically to antagonize unwanted bleeding. The effect oft-PA induced bleeding and its antagonism with TA was assessed in a rat tail bleeding model. Rats were anaesthetized by intraperitoneal injection of pentobarbital at 50 mg/kg. The thrombolytic agent t-PA was intravenously injected at a dose of 1 mg/kg, alone or in combination with TA at a dose of 5 mg/kg or 10 mg/kg. Another group of rats were administered 5 mg/kg TA alone. Control rats were administered saline. Each treatment group contained 7-10 rats.
Following treatment, rat tails were amputated about 4 mm from the tip and the tails were immersed in normal saline at 37° C. The bleeding time was determined as the time for complete cessation of blood flow from the amputated tail by visual inspection.
The relative ability of P188 to antagonize t-PA induced bleeding (compared to TA) was studied by evaluating P188 in the same rat tail bleeding model as described in Example 3. […]
Rat tails were amputated about 4 mm from the tip and the tails were immersed in normal saline at 37° C. and bleeding time was assessed as described in Example 3. […]

[1] = test system: embolic middle cerebral artery occlusion; assay: Embolic MCAO stroke model: modified neurological severity score (mNSS); assay type: in vivo, rat; settings: same schedule
Description: (§1) tPA is an effective treatment for acute stroke. Its use is limited by a narrow treatment window (3.5-4.5 hours from onset of stroke) and a greater risk of intracerebral hemnorrhage. […] To show this, the effects of administration of tPA alone, and tPA in combination with P188 were studied in a rat model of embolic middle cerebral artery occlusion. Male Wistar rats (N=10), 3-4 months old and weighing 350-400 g were subjected to embolic middle cerebral artery occlusion (MCAO) as described by Zhang (Zhang R L et al. A rat model of focal embolic cerebral ischemia. Brain Res. 1997, 766:83-92). Following occlusion, neurologic deficit was assessed 30 minutes after MCAO using a 5 point neurological scale (Longa scale; Longa et al., (1989) Stroke 20:84-91).
(§2) To compare the two treatments, P188 in combination with tPA and tPA alone were administered according to the schedule provided in Table 2. The dose of P188 was administered in a volume of 1.0 ml infused over a period of 1 hr by intravenous (IV) infusion via a tail vein. […] At 1 and 7 days after stroke onset (MCAO), clinical neurological function was assessed using the adhesive removal test and modified neurological severity score (mNSS) (Li Y, Chen J, Wang L, Lu M, Chopp M. Treatment of stroke with intracarotid administration of marrow stromal cells. Neurology 2001, 56: 1666-1672). […]

[2] = test system: embolic middle cerebral artery occlusion; assay: Embolic MCAO stroke model: adhesive removal test; assay type: in vivo, rat
Description: as §1, §2

[3] = test system: embolic middle cerebral artery occlusion; assay: Embolic MCAO stroke model: gross hemorrhage; assay type: in vivo, rat; settings: day 7 after MCAO, n=10 per group
Description: as §1
as §2, with “2.” for “2. The dose of P188 was administered in a volume of 1.0 ml infused over a period of 1 hr by intravenous (IV) infusion via a tail vein.”
The harvested brains also were assessed for the incidence of gross hemorrhage, defined as blood evident to the unaided eye on the H&E stained coronal sections. […]

[4] = test system: embolic middle cerebral artery occlusion; assay: Embolic MCAO stroke model: lesion volume; assay type: in vivo, rat; settings: day 7 after MCAO, H&E coronal sections
Description: as §1, §2

Compound | t-PA induced bleeding (t-PA induced bleeding; t-PA 1 mg/kg IV in combination with TA 5 or 10 mg/kg (FIG. 14)) | bleeding time of amputated tail (t-PA induced bleeding; t-PA alone 1 mg/kg IV, versus saline) | average mNSS score ([1]; 1 day after MCAO) | average mNSS score ([1]; 7 days after MCAO) | average time to tape removal ([2]; day 1 after MCAO, tPA 10 mg/kg IV at 4 hr, P188 300 mg/kg IV at 3.5 hr and 2,000 mg/kg ip at 9.5 hr) | average time to tape removal ([2]; day 7 after MCAO, same schedule) | animals exhibiting gross hemorrhage [3] | average lesion volume [4]
NC[C@H]1CC[C@H](C(=O)O)CC1 [TA, tranexamic acid, reference compound] | dose dependent reduction |  |  |  |  |  |  | 
tissue plasminogen activator [t-PA] |  | marked prolongation of bleeding time; also recorded: increased bleeding time | approximately 10.5 | approximately 8.5 | approximately 120 seconds | approximately 100 seconds | 30% | approximately 35 % of contralateral hemisphere
